# From patent publication EP3650046A1, “MESENCHYMAL STEM CELL BASED TARGETED ACTIVE INGREDIENT DELIVERY SYSTEM” (Cellis AG, priority 2018, dated 2020)
# Legend:
# [1] = test system: Human umbilical Mesenchymal Stem Cells (MSC); assay: Loading of UC-MSC in suspension with fluorescently labelled iron-binding protein complexes, flow cytometry; assay type: cell-based; details: MSC at passage five loaded with 0.6 mg/ml
# Experimental: Umbilical Cord Mesenchymal Stem cells (UC-MSC) were cultured in DMEM 1000, 1:100 penicillin/streptomycin, 20% FBS, 8 ng/ml bFGF. Media was changed every 2 days. Experiments were carried out on UC-MSCs at passage 5.
# Ferritin and haemoglobin complexes were produced as described in WO 2016/207257 (see in particular Examples 5 and 6).
# Human UC-MSCs were loaded in suspension with fluorescently labelled haemoglobin-Alexa488, ferritn-Alexa488 or ferritin loaded with anticancer drug doxorubicin (ferritin-doxorubicin) as follows: UC-MSCs were detached from culture dish with 0,25% Trypsin-EDTA then cells were mixed with 0,6 mg/ml of haemoglobin-Alexa488, ferritn-Alexa488 and ferritn-doxorubicin in PBS to final cell density 10^6 per ml. Next cells were incubated for 1 hour at 37 °C, 5% CO2 and washed once in PBS afterwards. Cells were immediately used to set up co-culture with cancer cells.
# [2] = test system: human cancer cell lines HeLa, SCOV3 or MDA-MB-231; assay: Delivery of the complex from loaded MSCs to cancer cells in co-culture, flow cytometry; assay type: cell-based; details: loaded MSCs co-cultured for 24 hours with cancer cells in ratio 2:1, example of results
# Experimental: Cancer cell lines HeLa, SKOV3 and MDA-MB-231 were cultures in RPMI, 10%FBS, 1:100 penicillin/streptomycin, 1:100 L-glutamine. Media was changed every 2 days.
# For co-culture with MSCs, cancer cells were detached from culture dish using 0,25% Trypsin-EDTA and resuspended in full RPMI media. UC-MSC cells were prepared as described in Example 1 and then mixed 2:1 (200 000:100 000) with cancer cell line and plated on 24-well plate. Co-culture media was a mixture 1:1 of media for MSC and cancer cells.
# The results were analysed by flow cytometry. Before setting up the co-culture in every experiment cancer cells were stained with Cell Trace Violet (Thermo Fisher Scientific) in the 1:100 dilution. In experiments with fluorescent cargo (haemoglon-Alexa488 and ferritin-A488) UC-MSC and cancer cells were differentiated by Cell Trace Violet signal. In experiments with ferritin-doxorubicin all cells in co-culture were additionally stained with Draq7 (BioLegend) in order to track viability. Cells were differentiated by Cell Trace Violet.
substance,measurement,setting,value
"Haemoglobin-Alexa488: fluorescently labelled haemoglobin-Alexa488, produced as described in WO 2016/207257",efficacy of loading of MSC,[1],≥ 97%
same,mean fluorescence intensity in loaded MSC cells versus control group,[1]; fold higher than control group,4 times
same,cancer cells positive for Haemoglobin-Alexa488,[2]; Fig. 2C,Approximately 96%
same,cancer cells positive for Haemoglobin-Alexa488,[2]; Fig. 3C (Ft- / Ft+ panels),Approximately 92%
